Measurements as given in US10766914B2, “DNA alkylating agents” (OBI PHARMA, INC., priority 2015, dated 2020).

Assays:
[1] = background statement; cited from earlier work
AKR1C3 = biological target: T1, AKR1C3 (Homo sapiens, UniProt P42330); conditions: background statement; cited from earlier work
T1 sequence (P42330 1-323): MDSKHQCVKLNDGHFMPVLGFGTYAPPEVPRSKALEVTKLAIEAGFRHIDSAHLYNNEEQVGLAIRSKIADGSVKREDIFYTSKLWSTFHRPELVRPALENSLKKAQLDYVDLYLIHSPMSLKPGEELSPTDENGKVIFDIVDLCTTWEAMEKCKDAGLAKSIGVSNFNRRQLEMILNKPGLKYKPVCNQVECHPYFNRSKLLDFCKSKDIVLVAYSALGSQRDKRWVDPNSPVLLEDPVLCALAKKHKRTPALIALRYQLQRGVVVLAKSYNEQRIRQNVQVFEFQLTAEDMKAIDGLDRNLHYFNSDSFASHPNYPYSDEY

[2] = Example 4-B body weight change, A549 xenograft study; type: in vivo, female nude mice (nu/nu)
Description: (§1) Cells were mixed with Matrigel (50% with exception for 30% in the H460) and 0.2 ml per mouse were subcutaneously implanted to the flank area of the animals. When tumor size reached 100-150 250 mm3, mice were randomized into experimental or vehicle groups with 10 mice/group and treatment was started (Day 1). The tested compounds were formulated in 5% DMSO in D5W. The regimens employed in the examples include IP, QD×5/wk (5 days on, 2 days off) as one cycle, for a total of 2 cycles; IP, once; IP, weekly for total 3 weeks; and IV, weekly for 3 weeks. Tumor growth and body weight were measured twice a week. Tumor volume was calculated as (length×width2)/2. Drug efficacy was assessed as Tumor Growth Inhibition (TGI) and Tumor Growth Delay (TGD). TGI was defined as (1−ΔT/ΔC)×100, where ΔT/ΔC presented the ratio of the change in mean (or median, if variation within the group was relatively large) tumor volume of the treated group and of the control group. TGD was calculated as the extra days for the treated tumor to reach 500 mm3 or 1000 mm3 as compared to the control group. Animals were culled when individual tumor size reached over 2000 mm3 or mean tumor volume exceeded 1000 mm3 in the group. Data are expressed as the mean±SEM. One-way analysis of variance with Dunnett post comparison test (GraphPad Prism 4) or two-tailed student's t-test were used for analysis. A P level <0.05 was considered statistically significant.
Antitumor effects of compounds provided herein were determined on A 549 non-small cell lung xenograft model in comparison with a chemotherapy agent, thiotepa. The dosing was as follows. Daily IP dosing: 5 doses then 2 days off then 5 more doses starting at 110 mm^3 tumors on day 1 (10 animals per group average tumor volume). The antitumor effects and the safety of administration are graphically illustrated below.

[3] = Example 4-C body weight change, A375 xenograft study; type: in vivo, female nude mice (nu/nu); conditions: 40 mpk, qd × 5 × 2, ip
Description: as §1
his study employed an A375 melanoma human tumor xenograft model and various compounds provided herein were compared to thiotepa and the approved anti melanoma drug, nab-Paclitaxel. The antitumor effects and the safety of administration are graphically illustrated below.

[4] = Example 4-A body weight change, H460 xenograft study; type: in vivo, female nude mice (nu/nu); conditions: 40 mg/kg ip QD × 5/wk × 2 wks
Description: as §1, with “A P level <0.05 was considered statistically significant.” left out

[5] = test system: A375 melanoma human tumor xenograft; assay: Example 4-C antitumor efficacy, ectopic A375 melanoma xenograft model; type: in vivo, female nude mice (nu/nu); conditions: qd × 5 × 2, ip
Text: (§2) Specific pathogen-free homozygous female nude mice (nu/nu, Charles River Laboratories) were used. Mice were given food and water ad libitum and housed in microisolator cages. Four to six week old animals were identified by microchips (Locus Technology, Manchester, Md., USA) at the time of the experiments. All animal studies were approved by the Institutional Animal Care and Use Committee at Threshold Pharmaceuticals, Inc.
(§3) All cell lines were from the American Type Culture Collection (ATCC, Rockville, Md., USA).
as §1
his study employed an A375 melanoma human tumor xenograft model and various compounds provided herein were compared to thiotepa and the approved anti melanoma drug, nab-Paclitaxel.

[6] = test system: H460 non-small cell lung cancer xenograft tumor; assay: Example 4-A antitumor efficacy, ectopic H460 NSCLC xenograft model; type: in vivo, female nude mice (nu/nu)
Text: as §2, §3, §1
Compounds provided herein were tested in vivo human tumor xenograft models and compared to standard chemotherapeutic agents such as gemcitabine, nab-paclitaxel. […] The compound was dosed as follows: daily IP dosing: 5 doses then 2 days off then 5 more doses starting at 100 mm^3 tumors on day 1 (10 animals per group median tumor volume). It is contemplated that in some embodiments, the compounds provided herein are activated by human and not by mouse enzymes. The antitumor effects and the safety of administration are graphically illustrated in FIGS. 3-20 below.

[7] = test system: renal cell carcinoma 786-O xenograft; assay: Example 4-E antitumor efficacy, renal cell carcinoma 786-O xenograft model; type: in vivo, female nude mice (nu/nu); conditions: 40 mpk, qd × 5/wk × 2
Text: as §2, §3
Cells were mixed with Matrigel (50% with exception for 30% in the H460) and 0.2 ml per mouse were subcutaneously implanted to the flank area of the animals. When tumor size reached 100-150 250 mm3, mice were randomized into experimental or vehicle groups with 10 mice/group and treatment was started (Day 1). The tested compounds were formulated in 5% DMSO in D5W. […] Tumor growth and body weight were measured twice a week. Tumor volume was calculated as (length×width2)/2. Drug efficacy was assessed as Tumor Growth Inhibition (TGI) and Tumor Growth Delay (TGD). […] TGD was calculated as the extra days for the treated tumor to reach 500 mm3 or 1000 mm3 as compared to the control group. […] Data are expressed as the mean±SEM. […]

[8] = Example 4-E body weight change, 786-O xenograft study; type: in vivo, female nude mice (nu/nu); conditions: 40 mpk, qd × 5/wk × 2
Description: as §1, with “The regimens employed in the examples include IP, QD×5/wk (5 days on, 2 days off) as one cycle, for a total of 2 cycles; IP, once; IP, weekly for total 3 weeks; and IV, weekly for 3 weeks.” left out
The compound TH-2768 was tested in a renal cell carcinoma 786-O model. The compound was dosed as follows. […]

H460 cells = assay: Proliferation assay in H460 cells (2 hr exposure, AlamarBlue); type: cell-based, human; conditions: Homo sapiens, NCI-H460, 2 hrs exposure, wash, 70 hrs growth, read-out: IC 50 in proliferation assay in H460 cells
How it was run: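 H460 cells seeded at 4×10^3/well, grown 24 h, then exposed to compound for 2 h at 37 °C. Drug was washed off and cells were regrown 70 h in fresh medium. Viable cells were read by AlamarBlue, and IC50 was taken as the concentration giving 50% growth inhibition.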

[9] = test system: A 549 non-small cell lung xenograft; assay: Example 4-B antitumor efficacy, ectopic A549 NSCLC xenograft model; type: in vivo, female nude mice (nu/nu)
Text: as §2, §3, §1
The dosing was as follows. Daily IP dosing: 5 doses then 2 days off then 5 more doses starting at 110 mm^3 tumors on day 1 (10 animals per group average tumor volume).
Doses were selected by first doing a toxicity test in CD1 mice as described above. The compounds were tested against Thio-tepa.

[10] = Example 4-H body weight change, H460 xenograft study; type: in vivo, female nude mice (nu/nu); conditions: ip, Q7D × 3
Description: as §1, with “A P level <0.05 was considered statistically significant.” left out

[11] = Example 4-G body weight change, H460 xenograft study; type: in vivo, female nude mice (nu/nu); conditions: ip, Q7D × 3
Description: as §1
(§4) The compounds TH-3040 and TH-3045 were tested in a H460 model. The compounds were dosed as follows. A dose-dependent TH-3040 or TH-3045 was given IP weekly for 3 weeks, from 5 to 45 mg/kg starting at 100 mm^3 tumors on day 1 (10 animals per group average tumor volume). The antitumor effects and the safety of administration are graphically illustrated below.

H460 NSCLC xenograft [12] = assay: Example 4-G antitumor efficacy, ectopic H460 NSCLC xenograft model; type: in vivo, female nude mice (nu/nu); conditions: ip, Q7D × 3
Text: as §2, §3, §1, §4

H460 NSCLC xenograft [13] = assay: Example 4-H antitumor efficacy, ectopic H460 NSCLC xenograft model; type: in vivo, female nude mice (nu/nu); conditions: ip, Q7D × 3
Text: as §2, §3, §1
The compound TH-3040 was tested in a H460 model. The compound was dosed as follows: 5 or 1.5 mg/kg, IP, weekly for 3 weeks at 100 mm^3 tumors on day 1 (10 animals per group average tumor volume), comparing with nab-Paclitaxel. The antitumor effects and the safety of administration are graphically illustrated below.

H460 NSCLC xenograft [14] = assay: Example 4-F antitumor efficacy, ectopic H460 NSCLC xenograft model; type: in vivo, female nude mice (nu/nu); conditions: ip, once
Text: as §2, §3, §1
(§5) The compounds TH-2953 and TH-3040 were tested in a H460 model. The compounds were dosed as follows. A dose-dependent TH-2953 was given IP once, from 6.25 to 100 mg/kg, comparing with daily IP: 5 doses then 2 days off then 5 more doses starting at 100 mm^3 tumors on day 1 (10 animals per group average tumor volume). TH-3040 was administered IP once. The antitumor effects and the safety of administration are graphically illustrated below.

[15] = Example 4-F body weight change, H460 xenograft study; type: in vivo, female nude mice (nu/nu); conditions: ip, once
Description: as §1, §5

[16] = 40 mg/kg ip QD × 5/wk × 2 wks, H460

CS(=O)(=O)OCCN(CCBr)c1c(C(=O)NCCOP(=O)(O)O)cc([N+](=O)[O-])cc1[N+](=O)[O-] [PR 104]
efficacy in clinical trials [1]: ineffective | substrate for AKR1C3 (AKR1C3): weak substrate

CC(OP(=O)(N1CC1)N1CC1)c1ccc([N+](=O)[O-])c(Oc2ccccc2)c1 (stereo not drawn) [Compound 2768]
Max. BW loss % ([2]; 40 mg/kg ip QD × 5/wk × 2 wks): 0.0% | Max. BW loss % ([2]; 80 mg/kg ip QD × 5/wk × 2 wks): 4.8% | Max. BW loss % [3]: 0% | Max. BW loss % [4]: 4.0% | TGD 500 ([5]; 40 mpk): 7 days | TGD 1000 ([5]; 40 mpk): 7 days | inhibition in vivo at 40 mg/kg ([5]; Mus musculus, A-375, 40 mpk, read-out: TGI): 36.7% | TGD 500 [6, 16]: 56 days | TGD 1000 [6, 16]: 62 days | TGI [6, 16]: 104.1% | antitumor effect as a monotherapy ([6]; H460 study, versus gemcitabine): superior to the effect of gemcitabine | TGI ([7]; ip): 73.0% | Max. BW loss % ([8]; ip): 0.0% | IC50 (H460 cells): 0.04 µM | TGD 500 ([9]; 40 mg/kg ip QD × 5/wk × 2 wks): >72 days | TGI ([9]; 40 mg/kg ip QD × 5/wk × 2 wks): 100.6% | TGD 500 ([9]; 80 mg/kg ip QD × 5/wk × 2 wks): >72 days | TGI ([9]; 80 mg/kg ip QD × 5/wk × 2 wks): 104.4%

CCN(CC)CCNC(=O)c1c(C)[nH]c(/C=C2\C(=O)Nc3ccc(F)cc32)c1C [Sunitinib, sunitinib, reference compound]
TGI ([7]; po): 67.8% | Max. BW loss % ([8]; po): 0.3%

C[C@H](OP(=O)(N1CC1)N1CC1)c1ccc([N+](=O)[O-])c(Oc2ccc(-c3ccccc3)cc2)c1 [Compound 3040]
Max. BW loss % ([10]; 1.5 mg/kg): 7.2% | Max. BW loss % ([10]; 5 mg/kg): 5.2% | Max BW loss ([11]; 5 mpk): 2.5% | Max BW loss ([11]; 15 mpk): 1.0% | Max BW loss ([11]; 45 mpk): 0.0% | TGD 500 (H460 NSCLC xenograft [12]; 5 mpk): 40 days | TGI (H460 NSCLC xenograft [12]; 5 mpk): 103.5% | TGD 500 (H460 NSCLC xenograft [12]; 15 mpk): 60 days | TGI (H460 NSCLC xenograft [12]; 15 mpk): 104.3% | TGD 500 (H460 NSCLC xenograft [12]; 45 mpk): 66 days | TGI (H460 NSCLC xenograft [12]; 45 mpk): 106.4% | IC50 (H460 cells): 0.004 µM | TGD500, Days (vs. vehicle) (H460 NSCLC xenograft [13]; 1.5 mg/kg): 15 days | TGD1000, Days (vs. vehicle) (H460 NSCLC xenograft [13]; 1.5 mg/kg): 19 days | TGI (H460 NSCLC xenograft [13]; 1.5 mg/kg): 80.6% | TGD500, Days (vs. vehicle) (H460 NSCLC xenograft [13]; 5 mg/kg): 36 days | TGD1000, Days (vs. vehicle) (H460 NSCLC xenograft [13]; 5 mg/kg): 41 days | TGI (H460 NSCLC xenograft [13]; 5 mg/kg): 101.9% | TGD 500 (H460 NSCLC xenograft [14]; 25 mpk): 17 days | TGD 1000 (H460 NSCLC xenograft [14]; 25 mpk): 17 days | TGI (H460 NSCLC xenograft [14]; 25 mpk): 80.5% | TGD 500 (H460 NSCLC xenograft [14]; 100 mpk): 20 days | TGD 1000 (H460 NSCLC xenograft [14]; 100 mpk): 23 days | TGI (H460 NSCLC xenograft [14]; 100 mpk): 93.7% | Max. BW loss % ([15]; 25 mpk): 1.3% | Max. BW loss % ([15]; 100 mpk): 0.0%
